The numbers were not newly measured in patent publication US20090156670A1 (VENUS REMEDIES LIMITED, priority 2004, published 2009), which cites them from elsewhere.

The conditions of series [1]: rheumatoid arthritis patients, long-term (6 months) study.
The subject of another series is CD11a. Particulars: human neutrophils.
In a further series the target is COX-I (Homo sapiens, UniProt P23219). The settings on record: oral form.
The conditions of series [2]: rats.
The test system of series [3] is adjuvant-induced polyarthritis. Particulars: rats; prophylactically and therapeutically.
A further series relates to CD11b. Particulars: human neutrophils.
In another series the test system is ICAM-3. The settings on record: human neutrophils.
For series [4] the following is noted: pain elicited by chemical and mechanical stimuli.
Another series concerns CD31. The settings on record: human neutrophils.
A further series has as its system CD44. The settings on record: human neutrophils.
Series [5] concerns interleukin1β-induced prostaglandin E2 production.
In the next series the test system is CD43. The settings on record: human neutrophils.
Series [6] relates to sodium urate-induced synovitis. Particulars: dogs; prophylactically and therapeutically.

Sequence of COX-I (P23219 24-599): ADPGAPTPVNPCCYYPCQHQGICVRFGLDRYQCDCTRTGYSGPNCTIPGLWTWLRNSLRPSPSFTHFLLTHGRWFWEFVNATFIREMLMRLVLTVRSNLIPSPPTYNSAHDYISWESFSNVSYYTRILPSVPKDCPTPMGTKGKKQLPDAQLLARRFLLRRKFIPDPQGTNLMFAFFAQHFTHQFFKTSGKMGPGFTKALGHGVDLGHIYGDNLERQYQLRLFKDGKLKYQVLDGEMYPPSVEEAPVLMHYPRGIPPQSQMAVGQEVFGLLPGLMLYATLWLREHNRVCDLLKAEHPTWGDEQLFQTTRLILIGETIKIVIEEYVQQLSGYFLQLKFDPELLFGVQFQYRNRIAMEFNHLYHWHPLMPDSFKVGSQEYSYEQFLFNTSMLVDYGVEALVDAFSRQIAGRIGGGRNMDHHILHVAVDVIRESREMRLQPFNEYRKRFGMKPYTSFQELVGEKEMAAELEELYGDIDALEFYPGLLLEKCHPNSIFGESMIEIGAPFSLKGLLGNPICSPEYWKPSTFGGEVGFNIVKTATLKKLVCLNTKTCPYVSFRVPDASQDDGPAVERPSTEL

Consider `O=C(O)Cc1ccccc1Nc1c(Cl)cccc1Cl` [diclofenac], for which the “incidence of gastrointestinal intolerance” value in [1] is 17%.

Turning to `O=C(O)COC(=O)Cc1ccccc1Nc1c(Cl)cccc1Cl` [aceclofenac, 2-[(2,6-dichlorophenyl)amino]phenylacetoxyacetic acid], the CD11a expression result in the series with CD11a was “unaffected”. Moreover, the COX-I inhibitor effect entry at COX-I is “poor”. The “fever induced by brewer's yeast injection” value in [2] is reported as “markedly suppressed”. The “incidence of gastrointestinal intolerance” value in series [1] was 13%. Besides, the “activity against adjuvant-induced polyarthritis” value in series [3] is “highly active”. Further, in the series on neutrophil aggregation, the “neutrophil aggregation induced with anti-CD43 Mab” value is “significantly inhibited”. Besides, the CD11b expression entry in the series with CD11b was “slightly increased”. The “decrement of ICAM-3 expression” value in the series with ICAM-3 is given as “slight”. Besides, the “analgesic effect compared with indometacin and diclofenac” value in series [4] was “nearly equal to or slightly better”. The CD31 expression entry with CD31 was “unaffected”. Further, the CD44 expression result in the series on CD44 was “unaffected”. Further, in [5], the “interleukin1β-induced prostaglandin E2 production” value is recorded as “inhibits”. For the same compound, in the series on CD43, the “decrement of CD43 expression” value is listed as “moderate”. Moreover, the “activity against sodium urate-induced synovitis” value in series [6] was “highly active”.
